Read-outs that look alike come from different tables or passages of the source.
What was measured:
[1] = system: Laser-Induced Choroidal Neovascularization (CNV); assay: Swine model of laser-induced choroidal neovascularization, safety and efficacy (Example 7); assay type: in vivo
Description: Safety and efficacy of a vorolanib insert were evaluated in a Swine (Mini-pig) Model of Laser-Induced Choroidal Neovascularization (CNV). The primary objective of this study was to evaluate the long-term safety and inhibition of vascular permeability and neovascularization in a laser-induced model of choroidal neovascularization (CNV) using a vorolanib insert in swine.
On the day of lasering (Groups 1-4) animals were treated with an 810 nm diode laser delivered through an indirect ophthalmoscope. Approximately 6 single laser spots were placed between retinal veins. Both eyes underwent laser treatment according to the schedule in the table above.
On the day of intravitreal injections animals were anesthetized and the eyes were aseptically prepared. […] Animals were allowed to recover normally from the procedure. The pigs were given a topical drop of antibiotic ophthalmic solution 4-6 hours later, and then BID for 2 additional days with at least 6 hours between doses. Animals were dosed on either Day 0 immediately following laser CNV induction or 7 days prior to laser CNV induction according to the schedule in the table above. […]
At time points indicated by the experimental design table, following final data collections, animals were euthanized. Histology was evaluated for eyes from Groups 5-6.

[2] = Solubility of vorolanib in water; assay type: physicochemical
Text: Vorolanib has the chemical designation (S,Z)—N-(1-(Dimethylcarbamoyl) pyrrolidin-3-yl)-5-((5-fluoro-2-oxoindolin-3-ylidene)methyl)-2,4-dimethyl-1H-pyrrole-3-carboxamide. Synonyms include the term “X-82”. The molecular formula is C23H26FN5O3. […]

[3] = Intravitreal pharmacokinetic study of vorolanib insert (Example 5A); assay type: in vivo, Male Dutch Belted Rabbits; conditions: for vitreous level of vorolanib at steady state: intravitreal; for AUC(0-t): read-out: vitreous AUClast
Description: An Intravitreal Pharmacokinetic Study was performed in Male Dutch Belted Rabbits. The objective of this study was to characterize the plasma and ocular tissue pharmacokinetics of a vorolanib insert following bilateral intravitreal injection on Day 1. Animals were evaluated up to 24 months following placement of the intravitreal insert.
The low dose group (1) received 3 inserts per eye for a total dose of 630 μg per eye. The high dose group (2) animals received 6 inserts per eye given in 2 separate injections (3 inserts per injection) for a total dose of 1,260 μg per eye.
Prior to each scheduled sacrifice point, one whole blood sample was collected from a targeted 2 animals per group via puncture of a marginal ear vein. Samples were tested for levels of vorolanib and its metabolite. Two animals per group were euthanized on day 1 at 6, 12, 24 and 48 hours, on days 7 and 14, and at 1, 2, 4, 6, 8, 16 and 24 months.

[4] = Intravitreal pharmacokinetic study of vorolanib insert (Example 5B); assay type: in vivo, Dutch Belted Rabbits
Description: Another Intravitreal Pharmacokinetic Study was performed in Dutch Belted Rabbits. The objective of this study was to evaluate the plasma and ocular pharmacokinetics of a vorolanib insert following bilateral intravitreal injection in rabbit eyes. Animals were evaluated up to 12 months following placement of the intravitreal insert.
Dutch Belted rabbits were administered vorolanib inserts in each eye by intravitreal injection. Group 1 eyes received 1 insert containing 643 μg of vorolanib, and Group 2 eyes received 2 inserts containing 900 μg total. Blood samples were collected at 2, 7, 14, and 28 days and then once monthly for months 2-12. Inserts were recovered at 2, 7, and 14 days and then at 1, 2, 4, 6, 8, 10, and 12 months. Residual vorolanib levels were determined in all explants using high-performance liquid chromatography. The vorolanib release rate was estimated based on residual levels in the explants. Plasma and ocular tissues were separated and analyzed for vorolanib and its metabolite using liquid chromatography mass spectrometry.

[5] = 18 month intravitreal toxicity and plasma pharmacokinetics study (Example 6); assay type: in vivo
Description: An 18 month intravitreal toxicity study for the insert was also performed in 80 Dutch Belted rabbits (40 male and 40 female). Animals were evaluated for a period of 6 and 18 months following placement of intravitreal inserts. The objective was to characterize the ocular toxicity, plasma pharmacokinetics and biodegradation of a vorolanib insert following bilateral intravitreal injection.
The tables below describe the group assignments and dose levels. For the toxicology groups, animals were sacrificed at 6 months and 18 months. For the plasma pharmacokinetic analysis, blood samples were collected at Days 1, 3, and 7 and then 1, 2, 3, 4, 5, 6, 12, 14, 16 and 18 Months.
The placebo group (1) animals received two placebo inserts by injection in each eye. The low dose group (2) animals received 2 inserts in each eye. The mid dose group (3) animals received 3 inserts in each eye given in 2 separate injections. The high dose group (4) animals received 4 inserts in each eye given in 2 separate injections (2 inserts/injection). The highest dose group (5) animals received 6 inserts in each eye given in 2 separate injections (3 inserts/injection).
At each scheduled timepoint, whole blood was collected via puncture of a marginal ear vein. Samples were analyzed for clinical pathology and plasma pharmacokinetics. Animals were euthanized according to the schedules described above. […]

[6] = male, Dutch Belted, rabbit, vitreous humor, topical or ocular, 630 ug, through day 180
[7] = male, Dutch Belted, rabbit, vitreous humor, topical or ocular, 1260 ug, through day 180

With “aflibercept: VEGF inhibitor (Regeneron), intravitreal injection, comparator in the swine CNV model” as the compound, how does the “reduction in Corrected Total Lesion Fluorescence (CTLF) value” ([1]; Day 7 to Day 28, aflibercept 2 mg, 50 μL/eye IVT, Day 0) read?
The value was “largest reduction in CTLF values”.

What about the “efficacy in the model” value ([1]; aflibercept 2 mg) of the same compound?
Its value is “normal amounts of efficacy”.

For `Cc1[nH]c(/C=C2\C(=O)Nc3ccc(F)cc32)c(C)c1C(=O)N[C@H]1CCN(C(=O)N(C)C)C1` [vorolanib, (S,Z)—N-(1-(Dimethylcarbamoyl)pyrrolidin-3-yl)-5-((5-fluoro-2-oxoindolin-3-ylidene)methyl)-2,4-dimethyl-1H-pyrrole-3-carboxamide], which solubility [2] is on record?
Its solubility is under 10 µg/mL.

And the “change in plasma levels” value ([3]; after 99 days)?
Its value is “No apparent change”.

What about the “vorolanib levels in the vitreous and the retina/choroid relative to IC50 for VEGFR” value ([3]; at the time points tested) of the same compound?
The value was “remained significantly above the IC50 for VEGFR”.

And the “retina/choroid level at steady state” value ([3]; high dose 1,260 μg per eye)?
Its value is 89 ng/g.

And the “vitreous level of vorolanib at steady state” value ([3]; high dose 1,260 μg per eye (6 inserts))?
Its value is 97 ng/mL.

And the “steady state reached by” value ([3]; in vivo)?
Its value is at most 105 days.

What about the “burst period of drug release” value ([3]; in vivo, before steady state) of the same compound?
The value was 90 days.

What about the “retina/choroid level at steady state” value ([3]; low dose 630 μg per eye) of the same compound?
The value was 49 ng/g.

And the “vitreous level of vorolanib at steady state” value ([3]; low dose 630 μg per eye (3 inserts))?
The value was 56 ng/mL.

And the Cmax [3, 6]?
Its Cmax is 232 ng/mL.

What about the Tmax [3, 6] of the same compound?
The Tmax was 14 days.

What about the AUC(0-t) [3, 6] of the same compound?
Its AUC(0-t) is 316 µg·h/mL.

And the Cmax [3, 7]?
The Cmax was 1700 ng/mL.

And the AUC(0-t) [3, 7]?
The AUC(0-t) was 1580 µg·h/mL.

And the “vorolanib plasma levels in the PK study” value ([3]; plasma)?
The value was “low pg/mL range”.

And the concentration at 10 months ([4]; Dutch Belted, rabbit, in vivo)?
Its concentration at 10 months is under 10 ng/mL.

And the “drop in mean vorolanib concentration in ocular tissues and plasma” value ([4]; Dutch Belted, rabbit, in vivo)?
Its value is 85%-99%.

What about the “vorolanib exposure rank order” value ([4]; ocular tissues and plasma) of the same compound?
The value was “choroid=retina=vitreous>aqueous humor>plasma”.

And the “concentrations in target ocular tissues (choroid and retina) relative to IC50 for VEGFR2” value ([4]; through 8 months)?
Its value is “above the IC50 for VEGFR2”.

And the vorolanib plasma levels ([5]; plasma)?
The vorolanib plasma levels was “low pg/mL range”.

And the adverse findings ([5]; up to 6 inserts per eye)?
Its adverse findings is “No adverse findings”.

Source: patent US20250186336A1, “METHOD OF TREATING WET AGE-RELATED MACULAR DEGENERATION” (EYEPOINT PHARMACEUTICALS, INC., priority 2022, published 2025)
